From patent US11208387B2, “Macrocyclic broad spectrum antibiotics” (Genentech, Inc., priority 2019, dated 2021)
≈ marks a conversion by molar mass, not a printed value. Read-outs that look alike come from different tables or passages of the source.

What was measured:
Experiment in all cases: Serum MIC, broth micro-dilution
Type in all cases: cell-based
[1] = system: Pseudomonas aeruginosa PA01; conditions: Pseudomonas aeruginosa, read-out: P. aeruginosa 01 Serum MIC
Method: (§1) In vitro antimicrobial activity of each compound was determined by measuring minimal inhibitor concentrations (MICs) using the broth micro-dilution technique as approved by the Clinical and Laboratory Standards Institute (CLSI) (Methods for Dilution Antimicrobial Susceptibility Tests for Bacteria that Grow Aerobically; Approved Standard—Eighth Edition. CLSI document M07-A8. Wayne, Pa.: Clinical and Laboratory Standards; 2009). Antibacterial activity was measure against Escherichia coli strain ATCC 25922 (E. coli), Klebsiella pneumoniae ATCC 700603 (K. pneumoniae), Acinetobacter baumannii ATCC 17978 (A. baumannii), and Pseudomonas aeruginosa PA01 (P. aeruginosa), each of which is representative of a clinically relevant Gram-negative species. Cells were inoculated onto plates of Mueller Hinton Agar and grown at 37° C. for 16-18 hours. Inocula suspensions were prepared by scraping cells into 1 mL of testing media (Mueller Hinton II cation adjusted Broth) and diluting to a final OD 600 nm of 0.01.
(§2) Test compounds were prepared in DMSO at a concentration of […]. The compounds were tested under several different dilution formats. In protocol 1, the compound stocks were diluted into testing media at a concentration of 64 μg/ml and serial 2-fold dilutions were made in the same media, in 96-well U bottom microtiter dishes, for a total of 10 compound concentrations. In protocol 2, the compound stocks were diluted into testing media at a concentration of 4 μg/mL and serial 2-fold dilutions were made in the same media, in 96-well U bottom microtiter dishes, for a total of 10 compound concentrations. In protocol 3, compound stocks were diluted into testing media at a concentration of 0.5 μg/mL, with serial 2-fold dilutions conducted as described above. In protocol 4, compound stocks were diluted into testing media at a concentration of 0.13 μg/mL, with serial 2-fold dilutions conducted as described above. Inocula suspensions were added to the 2-fold serial dilutions of test compounds to a final density of OD 600 nm of 0.0005 and incubated at 35° C. for 22 hours. […] To assess antimicrobial activity in the presence of plasma proteins, MICs were also determined in growth media supplemented with 50% serum. Bacterial inocula and test compound dilution plates were prepared using the same protocol as described above for the standard MICs assay, with the exception that a mixture of 50% v/v Mueller Hinton II cation adjusted Broth and 50% v/v mouse sterile filtered serum (Equitech-Bio) was used in place of 100% Mueller Hinton II cation adjusted Broth. The results are listed in Table 3 (MIC, IC50 values micromolar).

[2] = system: Klebsiella pneumoniae ATCC 700603; conditions: Klebsiella pneumoniae
Method: as §1, §2

[3] = system: Escherichia coli strain ATCC 25922; conditions: Escherichia coli, read-out: E. coli 25922 Serum MIC
Method: as §1, §2

[4] = system: Acinetobacter baumannii ATCC 17978; conditions: Acinetobacter baumannii
Method: as §1, §2

[5] = PA01, 50% v/v mouse serum, compounds of Table 1, Table 7
[6] = ATCC700603, 50% v/v mouse serum, compounds of Table 1, Table 7, read-out: K. pneumoniae 700603 Serum MIC
[7] = ATCC25922, 50% v/v mouse serum, compounds of Table 1, Table 7
[8] = ATCC17978, 50% v/v mouse serum, compounds of Table 1, Table 7, read-out: A. baumanii 17978 Serum MIC
[9] = PA01, 50% v/v mouse serum in Mueller Hinton II cation adjusted Broth, 35° C., 22 hours, Table 4
[10] = ATCC700603, 50% v/v mouse serum in Mueller Hinton II cation adjusted Broth, 35° C., 22 hours, Table 4, read-out: K pneumoniae 700603 Serum MIC
[11] = ATCC25922, 50% v/v mouse serum in Mueller Hinton II cation adjusted Broth, 35° C., 22 hours, Table 4
[12] = ATCC17978, 50% v/v mouse serum in Mueller Hinton II cation adjusted Broth, 35° C., 22 hours, Table 4, read-out: A. baumanii 17978 Serum MIC
[13] = ATCC17978, 50% v/v mouse serum in Mueller Hinton II cation adjusted Broth, 35° C., 22 hours, Table 5, read-out: Acinetobacter baumanii 17978 Serum MIC
[14] = ATCC700603, 22 h, read-out: K pneumoniae 700603 Serum MIC
[15] = ATCC17978, 22 h, read-out: A. baumanii 17978 Serum MIC
[16] = ATCC17978, 22 h, read-out: Acinetobacter baumanii 17978 Serum MIC

Structure (SMILES)	MIC [1, 9]	MIC [2, 10]	MIC [3, 11]	MIC [4, 12]	MIC [4, 13]	other results
Cc1cc(-c2ccc(C(C)(C)C)cc2)nc(C)c1C(=O)N[C@@H](CCN)C(=O)N(C)[C@@H]1C(=O)N[C@@H](C)C(=O)N[C@H](C(=O)O)Cc2ccc(O)c(c2)-c2cc1ccc2OCCN (racemic) [Example 644]						MIC [1, 5]: 74 µM (≈ 60.8 µg/mL); MIC [2, 6]: 4.6 µM (≈ 3.78 µg/mL); MIC [3, 7]: 1.2 µM (≈ 0.986 µg/mL); MIC [4, 8]: 74 µM (≈ 60.8 µg/mL)
C[C@@H]1NC(=O)[C@@H](N(C)C(=O)[C@H](CCN)NC(=O)c2cnn(-c3ccc(C(C)(C)C)cc3)c(=O)c2)c2cc(OC[C@H](O)CN)c(O)c(c2)-c2cc(ccc2OC[C@H](O)CN)C[C@@H](C(=O)O)NC1=O [Example 17, (8S,11S,14S)-18-hydroxy-11-methyl-14-[methyl-[(2S)-4-amino-2-[[1-(4-tert-butylphenyl)-6-oxo-pyridazine-4-carbonyl]amino]-butanoyl]amino]-10,13-dioxo-3,17-bis[(2R)-3-amino-2-hydroxy-propoxy]-9,12-diazatricyclo-[13.3.1.12,6]icosa-1(18),2(20),3,5,15(19), 16-hexaene-8-carboxylic acid]						MIC ([1]; PA01, 22 h): 64 µM (≈ 59.5 µg/mL); MIC [2, 14]: 1 µM (≈ 0.93 µg/mL); MIC ([3]; ATCC25922, 22 h): 1 µM (≈ 0.93 µg/mL); MIC [4, 15]: 16 µM (≈ 14.9 µg/mL); MIC [4, 16]: 16 µM (≈ 14.9 µg/mL)
Cc1nc(-c2ccc(C(C)(C)C)cc2)nc(C)c1C(=O)N[C@@H](CCN)C(=O)N(C)[C@@H]1C(=O)N[C@@H](C)C(=O)N[C@H](C(=O)NCC#N)Cc2ccc(O)c(c2)-c2cc1cc(OCCN)c2OCCN [Example 633]						MIC [1, 5]: 4 µM (≈ 3.68 µg/mL); MIC [2, 6]: 0.063 µM (≈ 0.058 µg/mL); MIC [3, 7]: 0.063 µM (≈ 0.058 µg/mL); MIC [4, 8]: 5 µM (≈ 4.6 µg/mL)
Cc1nc(-c2ccc(OCCC(C)(C)C)nc2)nc(N)c1C(=O)N[C@@H](CNS(N)(=O)=O)C(=O)N(C)[C@@H]1C(=O)N[C@@H](C)C(=O)N[C@H](C(=O)O)Cc2ccc(OC[C@H](O)CN)c(c2)-c2cc1cc(OC[C@H](O)CN)c2O [Example 54, (8S,11S,14S)-14-[[(2S)-2-[[4-amino-2-[6-(3,3-dimethyl-butoxy)-3-pyridyl]-6-methyl-pyrimidine-5-carbonyl]amino]-3-(sulfamoylamino)-propanoyl]-methyl-amino]-3,17-bis[(2R)-3-amino-2-hydroxy-propoxy]-18-hydroxy-11-methyl-10,13-dioxo-9,12-diazatri-cyclo[13.3.1.12,6]icosa-1(18),2(20),3,5,15(19), 16-hexaene-8-carboxylic acid]	4 µM (≈ 4.21 µg/mL)	0.5 µM (≈ 0.527 µg/mL)	0.38 µM (≈ 0.4 µg/mL)	8 µM (≈ 8.43 µg/mL)	8 µM (≈ 8.43 µg/mL)	
C[C@@H]1NC(=O)[C@@H](N(C)C(=O)[C@H](CNS(N)(=O)=O)NC(=O)c2cnn(-c3ccc(C(C)(C)C)cc3)c(=O)c2)c2cc(OC[C@H](O)CN)c(O)c(c2)-c2cc(ccc2OC[C@H](O)CN)C[C@@H](C(=O)O)NC1=O [Example 1, (8S,11S,14S)-18-hydroxy-11-methyl-14-[methyl-[(2S)-2-[[1-(4-tert-butylphenyl)-6-oxo-pyridazine-4-carbonyl]amino]-3-(sulfamoylamino)-propanoyl]amino]-10,13-dioxo-3,17-bis[(2R)-3-amino-2-hydroxy-propoxy]-9,12-diazatricyclo-[13.3.1.12,6]icosa-1(18),2(20),3,5,15(19), 16-hexaene-8-carboxylic acid]						MIC ([1]; PA01, 22 h): 16 µM (≈ 15.9 µg/mL); MIC [2, 14]: 1.5 µM (≈ 1.49 µg/mL); MIC ([3]; ATCC25922, 22 h): 3 µM (≈ 2.99 µg/mL); MIC [4, 15]: 24 µM (≈ 23.9 µg/mL); MIC [4, 16]: 24 µM (≈ 23.9 µg/mL)

The next lines start with results.

MIC [1, 9]	MIC [2, 10]	MIC [3, 11]	MIC [4, 12]	MIC [4, 13]	Structure (SMILES)	other results
8 µM (≈ 8.06 µg/mL)	1 µM (≈ 1.01 µg/mL)	0.5 µM (≈ 0.504 µg/mL)	16 µM (≈ 16.1 µg/mL)	16 µM (≈ 16.1 µg/mL)	Cc1cc(-c2ccc(C(C)(C)C)cc2)nc(N)c1C(=O)N[C@@H](CNS(N)(=O)=O)C(=O)N(C)[C@@H]1C(=O)N[C@@H](C)C(=O)N[C@H](C(=O)O)Cc2ccc(OC[C@H](O)CN)c(c2)-c2cc1cc(OC[C@H](O)CN)c2O [Example 49, (8S,11S,14S)-14-[[(2S)-2-[[2-amino-6-(4-tert-butylphenyl)-4-methyl-pyridine-3-carbonyl]amino]-3-(sulfamoylamino)-propanoyl]-methyl-amino]-3,17-bis[(2R)-3-amino-2-hydroxy-propoxy]-18-hydroxy-11-methyl-10,13-dioxo-9,12-diazatri-cyclo[13.3.1.12,6]icosa-1(18),2(20),3,5,15(19), 16-hexaene-8-carboxylic acid]	
32 µM (≈ 33.2 µg/mL)	1.5 µM (≈ 1.56 µg/mL)	6 µM (≈ 6.22 µg/mL)	32 µM (≈ 33.2 µg/mL)	32 µM (≈ 33.2 µg/mL)	C[C@@H]1NC(=O)[C@@H](N(C)C(=O)[C@H](CNS(N)(=O)=O)NC(=O)c2cnn(-c3ccc(OC4CCCCC4)cc3)c(=O)c2)c2cc(OC[C@H](O)CN)c(O)c(c2)-c2cc(ccc2OC[C@H](O)CN)C[C@@H](C(=O)O)NC1=O [Example 9, (8S,11S,14S)-18-hydroxy-11-methyl-14-[methyl-[(2S)-2-[[1-[4-(cyclohexoxy)-phenyl]-6-oxo-pyridazine-4-carbonyl]amino]-3-(sulfamoylamino)-propanoyl]amino]-10,13-dioxo-3,17-bis[(2R)-3-amino-2-hydroxy-propoxy]-9,12-diazatricyclo-[13.3.1.12,6]icosa-1(18),2(20),3,5,15(19), 16-hexaene-8-carboxylic acid]	
16 µM (≈ 16.3 µg/mL)	0.5 µM (≈ 0.511 µg/mL)	1 µM (≈ 1.02 µg/mL)	16 µM (≈ 16.3 µg/mL)	16 µM (≈ 16.3 µg/mL)	Cc1nc(-c2ccc(C(C)(C)C)cc2)cc(CN)c1C(=O)N[C@@H](CNS(N)(=O)=O)C(=O)N(C)[C@@H]1C(=O)N[C@@H](C)C(=O)N[C@H](C(=O)O)Cc2ccc(OC[C@H](O)CN)c(c2)-c2cc1cc(OC[C@H](O)CN)c2O [Example 63, (8S,11S,14S)-3,17-bis[(2R)-3-amino-2-hydroxy-propoxy]-14-[[(2S)-2-[[4-(amino-methyl)-6-(4-tert-butylphenyl)-2-methyl-pyridine-3-carbonyl]amino]-3-(sulfamoylamino)-propanoyl]-methyl-amino]-18-hydroxy-11-methyl-10,13-dioxo-9,12-diazatri-cyclo[13.3.1.12,6]icosa-1(18),2(20),3,5,15(19), 16-hexaene-8-carboxylic acid]	
8 µM (≈ 8.32 µg/mL)	1 µM (≈ 1.04 µg/mL)	1 µM (≈ 1.04 µg/mL)	48 µM (≈ 49.9 µg/mL)	48 µM (≈ 49.9 µg/mL)	CCC(C)(C)c1ccc(-c2nc(C)c(C(=O)N[C@@H](CNS(N)(=O)=O)C(=O)N(C)[C@@H]3C(=O)N[C@@H](C)C(=O)N[C@H](C(=O)O)Cc4ccc(OC[C@H](O)CN)c(c4)-c4cc3cc(OC[C@H](O)CN)c4O)c(N)n2)c(F)c1 [Example 33, (8S,11S,14S)-14-[[(2S)-2-[[4-amino-2-[4-(1,1-dimethyl-propyl)-2-fluoro-phenyl]-6-methyl-pyrimidine-5-carbonyl]amino]-3-(sulfamoylamino)-propanoyl]-methyl-amino]-3,17-bis[(2R)-3-amino-2-hydroxy-propoxy]-18-hydroxy-11-methyl-10,13-dioxo-9,12-diazatricyclo-[13.3.1.12,6]icosa-1(18),2(20),3,5,15(19), 16-hexaene-8-carboxylic acid]	
